This note sets out measurements from US10092657B2, “Opsonized β-glucan preparations and methods” (Biothera, Inc., priority 2011, dated 2018).

In test [1] the test system is human monocytes. Briefly: Binding of PGG β-glucan after serum pre-treatment, monocytes. Format: cell-based. The note with it: 10 mM EGTA with or without 10 mM MgCl2; vs untreated serum. How it is done: (§1) PGG β-glucan at concentration 60-80 mg/mL was incubated with human serum at 1:10 volume ratio for 30 minutes in a 37° C. water bath. The serum-pretreated PGG β-glucan was added to neutrophils at 200 μg/mL or to PBMC at 100 μg/mL resuspended in RPM1 containing either 10% regular autologous serum or 10% HI serum at indicated time and temperature of incubation. Binding was then determined as described previously.
(§2) To determine the role of complement proteins in binding, experiments were performed as described above except for using serum containing 10% HI, compstatin-treated or methylamine (MA)-treated, EGTA- or EGTA+MgCl2 (MgEGTA)-treated, or factor D-blocked serum. Heat-inactivated (HI) serum was prepared by incubating serum in a 56° C. water bath for 30 minutes. […] Treatment of serum with methylamine (MA) was done by incubating serum with 0.67% of methylamine for 2.5 hours at 37° C., followed by three washes with DPBS using Amicon centrifugal filter unit with a 3K MW cut-off (Millipore, Billerica, Mass.). DPBS-treated serum was prepared in the same manner and used as control serum for MA-treated serum. For blocking of factor D in the serum, 166-32 at concentration 20 μg/mL was incubated with serum on ice for 30 minutes, and then used for binding studies. […]

For a further test, the system named is sC5b-9 complex. Briefly: Measurement of fluid-phase SC5b-9 complex formation in the serum. As to conditions: serum treated with 10 mM EGTA with or without 10 mM MgCl2. The test is classed as biochemical, human. On the procedure: The MicroVue SC5b-9 EIA kit was used to measure activation of the classical and alternative pathways of complement according to the vendor's instruction (Quidel Corp., San Diego, Calif.). Briefly, the serum, untreated or treated was mixed with PBS, Ab-sensitized sheep RBC (SRBC), or 20 units of CVF and added to plate wells pre-coated with anti-sC5b-9 monoclonal antibody. The plate was incubated at 37° C. for 60 minutes, followed by five washes with the provided wash buffer. The plate was then incubated with the provided SC5b-9 Plus Conjugate, which contained horseradish peroxidase-conjugated Ab specific for sC5b-9 at room temperature for 30 minutes. The plate was washed five times, incubated with the substrate for 15 minutes at room temperature to initiate the enzymatic reaction and subsequently quenched with the stop solution. OD450 Was measured using the spectrophotometer SpectraMAX 250. The concentration of fluid phase sC5b-9 present in the samples was determined from the standard curve generated with the provided sC5b-9 standards.

The test system of test [2] is human neutrophils. The test can be described thus: Binding of PGG β-glucan after serum pre-treatment, neutrophils. Format: cell-based. The note with it: 10 mM EGTA with or without 10 mM MgCl2; vs untreated serum. On the procedure:
as §1, §2

For test [3], the target named is T1, iC3b (Homo sapiens, UniProt P01024).
T1 construct: from tissue
T1 sequence (P01024 749-1303 limits assumed): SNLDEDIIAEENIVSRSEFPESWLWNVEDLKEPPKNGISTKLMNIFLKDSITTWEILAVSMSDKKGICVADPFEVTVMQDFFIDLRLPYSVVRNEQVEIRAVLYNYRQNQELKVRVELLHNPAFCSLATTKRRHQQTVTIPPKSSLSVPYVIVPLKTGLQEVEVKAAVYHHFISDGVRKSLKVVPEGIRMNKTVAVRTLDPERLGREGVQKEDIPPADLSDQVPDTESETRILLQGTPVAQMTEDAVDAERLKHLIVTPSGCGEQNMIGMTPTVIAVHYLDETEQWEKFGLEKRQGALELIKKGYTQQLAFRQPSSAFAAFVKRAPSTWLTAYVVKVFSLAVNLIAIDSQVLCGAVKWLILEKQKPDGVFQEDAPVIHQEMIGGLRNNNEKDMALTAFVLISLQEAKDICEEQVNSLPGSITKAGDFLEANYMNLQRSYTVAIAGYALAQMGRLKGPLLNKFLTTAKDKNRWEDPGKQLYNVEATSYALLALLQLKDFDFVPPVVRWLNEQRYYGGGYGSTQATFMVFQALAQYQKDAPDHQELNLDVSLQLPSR
T1 sequence (P01024 23-667 partner limits assumed): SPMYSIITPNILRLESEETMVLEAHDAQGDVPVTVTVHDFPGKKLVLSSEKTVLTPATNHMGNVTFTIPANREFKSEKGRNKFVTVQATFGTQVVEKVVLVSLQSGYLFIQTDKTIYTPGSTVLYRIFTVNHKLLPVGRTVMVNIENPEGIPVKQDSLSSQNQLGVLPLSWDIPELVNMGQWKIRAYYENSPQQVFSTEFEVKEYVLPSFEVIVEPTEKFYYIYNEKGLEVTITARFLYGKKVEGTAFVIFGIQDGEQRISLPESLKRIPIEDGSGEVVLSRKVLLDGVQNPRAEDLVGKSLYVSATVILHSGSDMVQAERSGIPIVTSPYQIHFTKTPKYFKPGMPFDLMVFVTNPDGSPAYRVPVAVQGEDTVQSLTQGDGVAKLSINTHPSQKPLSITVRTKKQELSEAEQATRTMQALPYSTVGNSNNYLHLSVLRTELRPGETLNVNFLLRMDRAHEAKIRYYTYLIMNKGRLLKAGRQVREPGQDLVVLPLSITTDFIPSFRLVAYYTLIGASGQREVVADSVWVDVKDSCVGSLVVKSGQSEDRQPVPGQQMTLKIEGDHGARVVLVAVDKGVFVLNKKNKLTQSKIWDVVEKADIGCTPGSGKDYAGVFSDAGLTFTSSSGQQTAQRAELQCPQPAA
T1 sequence (P01024 1321-1663 partner limits assumed): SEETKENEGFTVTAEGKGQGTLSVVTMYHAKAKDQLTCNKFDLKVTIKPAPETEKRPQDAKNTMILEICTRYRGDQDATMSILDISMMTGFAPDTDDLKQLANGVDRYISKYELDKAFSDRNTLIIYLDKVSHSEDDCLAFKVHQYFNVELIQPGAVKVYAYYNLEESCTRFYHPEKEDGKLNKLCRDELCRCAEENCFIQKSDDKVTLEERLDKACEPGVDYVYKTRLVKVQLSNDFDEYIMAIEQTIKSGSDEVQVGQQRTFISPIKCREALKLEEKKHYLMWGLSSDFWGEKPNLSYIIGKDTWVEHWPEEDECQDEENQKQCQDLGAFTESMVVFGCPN
Briefly: ELISA for iC3b deposition on immobilized PGG β-glucan. As to conditions: for Effect of serum treatment on iC3b deposition on immobilized β-glucan: methylamine 0.67%, 10 mM EGTA, 10 mM EGTA+10 mM MgCl2. The test is classed as binding. How it is done: PGG β-glucan or dextran was immobilized on wells of a 96-well polystyrene plate (COSTAR, Coming, Inc., Lowell, Mass.) by drying the glucans at 50° C. followed by UV cross-linking. The glucan-coated plate was first blocked with 1% BSA before incubation with untreated serum or serum undergone various treatments as described in binding studies, diluted 1:2 with wash buffer (PBS/0.05% Tween-20) for 30 minutes at 37° C. After washing the serum from the plate, the bound iC3b was probed using the anti-iC3b monoclonal antibody followed by biotin-labeled goat anti-mouse IgG Ab. The amount of immobilized biotin-labeled antibody was determined using streptavidin peroxidase and TMB substrate solution (KPL, Gaithersburg, Md.). OD450 of each well was measured with the spectrophotometer SpectraMAX 250 (Molecular Devices, Sunnyvale, Calif.). Fold change was calculated as OD450 of wells containing immobilized β-glucan divided by OD450 of wells containing no β-glucan, both incubated in the presence of treated or untreated serum.

For test [4], the system named is human monocytes. Briefly: Binding studies on the role of complement proteins in serum, monocytes. Format: cell-based. As to conditions: for Effect of the agent added to serum or media on binding of PGG β-glucan: compstatin/control peptide 20 or 100 μM, methylamine 0.67%, 166-32 20 μg/mL, HSA 10%. How it is done: (§3) Heat-inactivated (HI) serum was prepared by incubating serum in a 56° C. water bath for 30 minutes. […] Treatment of serum with methylamine (MA) was done by incubating serum with 0.67% of methylamine for 2.5 hours at 37° C., followed by three washes with DPBS using Amicon centrifugal filter unit with a 3K MW cut-off (Millipore, Billerica, Mass.). DPBS-treated serum was prepared in the same manner and used as control serum for MA-treated serum. For blocking of factor D in the serum, 166-32 at concentration 20 μg/mL was incubated with serum on ice for 30 minutes, and then used for binding studies. For binding experiments in the presence of EGTA or MgEGTA, serum was incubated with 10 mM EGTA with or without 10 mM MgCl2 for 10 minutes at room temperature. The untreated and EGTA/MgEGTA-treated serum was then used to pre-treat PGG and perform binding studies as described earlier.

Test [5] has as its system human neutrophils. The test can be described thus: Binding studies on the role of complement proteins in serum, neutrophils. The test is classed as cell-based. As to conditions: for Effect of the agent added to serum or media on binding of PGG β-glucan: compstatin/control peptide 20 or 100 μM, methylamine 0.67%, 166-32 20 μg/mL, HSA 10%. On the procedure:
as §3

Test [6] has as its target T1, iC3b. Briefly: Immunoprecipitation of PGG β-glucan with BfD IV and detection of pulled-down iC3b. As to conditions: glucan incubated with regular serum. The test is classed as binding. How it is done: PGG β-glucan or dextran at concentration 60-80 mg/mL was incubated with regular or HI serum at 1:10 volume ratio for 30 minutes in a 37° C. water bath. BfD IV Ab was added to the serum/β-glucan mixture and incubated at room temperature for additional 30 minutes. Magnetic beads conjugated with rat anti-mouse IgM (DYNABEADS, Invitrogen, Camarillo, Calif.) were washed three times with DPBS and incubated with serum-PGG β-glucan-BfD IV mixture for another 30 minutes at room temperature. The beads were separated magnetically and iC3b pulled-down along with immunoprecipitated PGG was probed using FITC-conjugated complement C3 Ab by flow cytometer.

Test [7] relates to human neutrophils. The test can be described thus: Binding of DTAF-labeled PGG β-glucan to human neutrophils, with excess unlabeled competitor. The note with it: 10 mg/mL unlabeled competitor; 25 μg/mL DTAF-labeled β-glucan. The test is classed as cell-based.
Method: In early optimization experiments, neutrophils, monocytes, and T cells were identified by staining with fluorescently labeled anti-CD 15, anti-CD 14, or anti-CD3 Abs, respectively. Events were collected on a LSRII flow cytometer (BD Biosciences, San Jose, Calif.) and analysis was performed using FLOWJO (Tree Star, Ashland, Oreg.). For assessing binding of DTAF-labeled PGG β-glucan to human neutrophils, 25 βg/mL, 100 μg/mL, or 400 μg/mL of labeled β-glucan was added to neutrophils resuspended in RPMI/10% serum, incubated in a 37° C., 5% CO2 humidified incubator for one hour, washed twice with cold FACS buffer, and fixed with 1% paraformaldehyde. Surface binding of DTAF-conjugated β-glucan was subsequently assessed by flow cytometric analysis.
Setting [8] is: 100 μM compstatin-treated serum vs control peptide, C3 blocking, three donors.

On to `O=C(O)CN(CCOCCOCCN(CC(=O)O)CC(=O)O)CC(=O)O` [EGTA], for which the “Rescue of binding to cells in HI serum by PGG β-glucan pre-opsonized in treated serum” value in the test with human monocytes [1] and in the test on human neutrophils [2] was “rescue of binding was diminished” in each case. Besides, the “Effect on CVF-activated alternative pathway (sC5b-9 formation)” value in the test with sC5b-9 complex was “completely blocked both the classical and alternative pathways to background levels”. Moreover, the “Effect on SRBC-activated classical pathway (sC5b-9 formation)” value in the test on sC5b-9 complex was “completely blocked both the classical and alternative pathways to background levels”. Besides, on iC3b [3], the “Effect of serum treatment on iC3b deposition on immobilized β-glucan” value is on record as “completely inhibited”.
In the case of “control peptide: control peptide IAVVQDWGHHRAT (SEQ ID NO:2) (control polypeptide)”, the “Effect of the agent added to serum or media on binding of PGG β-glucan” value (“Effect of the agent added” for short) with human monocytes [4] and in the test on human neutrophils [5] was “no effect on binding” each time.
Consider dextran [reference compound], for which the “iC3b pulled down with BfD IV immunoprecipitate” value at iC3b [6] is recorded as “absence of iC3b”. The “Blocking of DTAF-labeled β-glucan staining by excess unlabeled glucan” value in the test on human neutrophils [7] is on record as “did not block binding”. Further, the “Fold increase of iC3b detected on immobilized glucan compared to background” value at iC3b [3] (300 μg/mL immobilized, regular serum 30 minutes at 37° C.) was “significantly less iC3b detected”.
For `CN` [methylamine], the “Effect of the agent added” value with human monocytes [4] and in the test on human neutrophils [5] was “abrogated the ability of PGG β-glucan to bind to cells” throughout. For the same molecule, at iC3b [3], the “Effect of serum treatment on iC3b deposition on immobilized β-glucan” value is recorded as “complete inhibition of iC3b deposition”.
For `CC[C@H](C)[C@H](N)C(=O)N[C@H]1CSSC[C@@H](C(=O)N[C@H](C(N)=O)[C@@H](C)O)NC(=O)[C@H](CCCN=C(N)N)NC(=O)[C@H](Cc2cnc[nH]2)NC(=O)[C@H](Cc2cnc[nH]2)NC(=O)CNC(=O)[C@H](Cc2c[nH]c3ccccc23)NC(=O)[C@H](CC(=O)O)NC(=O)[C@H](CCC(N)=O)NC(=O)[C@H](C(C)C)NC(=O)[C@H](C(C)C)NC1=O` [compstatin], the “Average percentage of inhibition of β-glucan binding” value in the test on human monocytes [4] (setting [8]) is on record as 80%; in the test with human neutrophils [5] (setting [8]) it was 95%. For the same molecule, the “Range of percentage of inhibition of β-glucan binding” value in the test on human monocytes [4] (setting [8]) is recorded as 62-92%; with human neutrophils [5] (setting [8]) it was 90-98%. For the same molecule, the “Effect of the agent added” value with human monocytes [4] and with human neutrophils [5] was “inhibited binding of β-glucan in a concentration-dependent manner” throughout.
